Measurements reported in EP1566447A1, “Glimepiride- and insulin-induced glycosylphosphatidylinositol-specific phospholipase C regulation” (priority 2004, dated 2005).

Experiments:
[1] = test system: bacterial, trypanosomal, serum and rat adipocyte GPI-PLC/D; test: (G)PI-PLC/D of various origin, results stated collectively; type: biochemical
Protocol: GPI-PLD (rat serum) was assayed according to "Hari et al. (1997) Biochim. Biophys. Acta 1355: 293-302" by incubation with 10 µl of human placental aP solution (100 U/ml in 10 mM Hepes/NaOH, pH 7.0, 150 mM NaCl) in 100 µl of 200 mM Tris/maleate (pH 7.0) and 1 % Nonidet P-40 for 10 min at 37°C and subsequent termination of the reaction by addition of 0.4 ml of ice-cold stop buffer (10 mM Hepes/NaOH, pH 7.0, 150 mM NaCl, 0.1 mM MgCl2 and 0.01 mM zinc acetate). GPI-PLC (T. brucei) was assayed as described in "Mensa-Wilmot et al. (1995) Methods Enzymol. 250: 641-655" by incubation with 5 µl of human placental aP solution (see above) in 50 µl of 50 mM Tris/HCl (pH 8.0), 0.25 % Nonidet P-40 and 5 mM EDTA for 30 min at 37°C and subsequent termination of the reaction by addition of 0.45 ml of stop buffer. […]
Pelleted hc/IcDIGs (10-50 µg protein) or (G)PI-PLC reaction mixtures (0.5 ml) were separated into amphiphilic and hydrophilic proteins using partitioning between TX-114-enriched and depleted phases according to "Bordier, C., (1981) J. Biol, Chem. 272: 2542-2550" by suspending in 1 ml of ice-cold TX-114 (1 %), 25 mM Tris/HCl (pH 7.4), 144 mM NaCl or mixing with 0.5 ml of ice-cold TX-114 (2 %), respectively. […] After re-extraction of the lower TX-114-enriched phase, aliquots of the pooled upper TX-114-depleted phase were measured for 5'-Nuc, aP and AChE activity or precipitated (15 % polyethylene glycol 4000) for SDS-PAGE analysis.
GPI-2350 inhibits (G)PI-PLC/D of various origin with high potency and selectivity: The effect of GPI-2350 on (purified or crude) B. cereus PI-PLC, T. brucei GPI-PLC and rat serum GPI-PLD was monitored by their incubation with partially purified solubilized GPI proteins under appropriate conditions (low or high detergent conc.) in the presence of increasing concentrations of GPI-2350. […]

[2] = stability of the compound in solvents and as a solid; type: physicochemical
Protocol: As starting material, racemic 1,4,5,6-tetra-O-benzyl-myo-inositol (thereinafter: compound 1) was prepared by a procedure as disclosed in "Zhai, H.-X. et al. (1995) Tetrahedron Lett. 36: 7403-7406". Compound 1 was then phosphorylated with dodecylphosphonic dichloride in the presence of triethylamine and dimethyl-aminopyridine to yield tetra-O-benzyl-myo-inositol-1,2-cyclo-dodecylphosphonic acid (thereinafter: compound 2). By catalytic hydrogenation with 10% Pd on charcoal compound 2 was debenzylated to myo-inositol-1,2-cyclo-dodecylphosphonic acid (thereinafter: compound 3 or GPI-2350) as a mixture of diastereomeres. For synthesis of compound 2 (Fig. 1), 1 g (1.8 mmol) of compound 1 was dissolved in 60 ml of methylene chloride and 1 ml of triethylamine, 200 mg dimethyl-aminopyridine and 1 g ([…]) of dodecylphosphonic dichloride were added. This reaction solution was allowed to stand (45 min, room temperature). Then 50 ml of ethyl acetate were added and the mixture was filtrated on silical gel. After concentration of the solvent, the residue was purified by flash chromatography (n-heptane/ethyl acetate, 1/1, by vol.). Yield of compound 2: 580 mg (43 %) of a white amorphous solid. TLC: n-heptane/ethyl acetate (1/1, by vol.), Rf = 0.7. MS: (M + Li)^+ = 761.4, calculated […], M = 754.9. […] MS: (M + Li)^+ = 401.2, calculated C18H35O7P, M = 394.4.

CCCCCCCCCCCCP1(=O)O[C@@H]2[C@H](O)[C@@H](O)[C@H](O)[C@@H](O)[C@@H]2O1 (mixture of isomers) [GPI-2350, myo-inositol-1,2-cyclo-dodecylphosphonic acid]
blocked GPI-PLC/D by ([1]; 50 µM, one range for all four enzymes, Fig. 3): 60 to 95%
reversal of half-maximal inhibition upon 10-fold dilution ([1]; bacterial and trypanosomal (G)PI-PLC, dilution with excess of fresh GPI-protein substrate): completely reversed
IC50 ([1]; bacterial, trypanosome and serum GPI-PLC and GPI-PLD, one range for all): 0.2 to 10 µM
stability in acidic vs. basic solvents [2]: less stable in acidic than basic solvents
stability in methanol ([2]; methanol): for days
